The Ki is the equilibrium dissociation constant of an inhibitor or competing ligand from its target. A lower Ki goes with higher affinity.

In ChEMBL document CHEMBL1128296, “Quantitative binding site model generation: compass applied to multiple chemotypes targeting the 5-HT1A receptor” (J Med Chem, 1995) one finds Ki data, which are given here for twelve compounds.

The assay can be described thus: Tested for activity against 5-hydroxytryptamine 1A receptor from bovine hippocampus.

In turn, `COc1cccc2c1C[C@H]1CCN(Cc3ccccc3)[C@@H]1C2` gave a Ki of 0.127 µM.

With `C=CCN1C[C@H]2c3c(cccc3OC)CC[C@H]21`, the Ki is 0.0059 µM.

As for `CCCN1CC[C@@H]2c3ccccc3CC[C@H]21`, the affinity corresponds to a Ki of 0.044 µM.

`COc1cccc2c1CC[C@@H]1[C@@H]2CCN1CC1CC1` registered a Ki of 0.066 µM.

For the compound `C=CCN1CC[C@H]2c3ccccc3CC[C@H]21`, affinity was put at a Ki of 0.031 µM.

Take `CCCN1CC[C@H]2c3ccccc3CC[C@H]21`: the affinity, expressed as Ki, was 0.037 µM.

`COc1cccc2c1C[C@H]1CCN(CC3CC3)[C@@H]1C2` registered a Ki of 0.029 µM.

The compound `COc1cccc2c1C[C@H]1CCN(CC3CC3)[C@H]1C2` registered a Ki of 0.721 µM.

Compound `COc1cccc2c1C[C@H]1CCN[C@@H]1C2` displayed a Ki of 0.029 µM.

As for `CCCN1CC[C@H]2c3c(cccc3OC)CC[C@H]21`, the Ki worked out at 0.186 µM.

Compound `C=CCN1C[C@H]2c3c(O)cccc3CC[C@H]21` gave a Ki of 0.0003 µM.

As to `C=CCN1CC[C@@H]2c3ccccc3CC[C@H]21`, the Ki came to 0.011 µM.
